Data reported in patent US11077115B2, “Rorgamma modulators and uses thereof” (Genfit, priority 2017, dated 2021).

What was measured:
[1] = target: T1, RORγt ligand-binding domain (RORγt-LBD) (Homo sapiens, UniProt P51449); assay: Time-resolved FRET (TR-FRET) RORγt coactivator assay (RIP140 peptide displacement); type: biochemical; conditions: ligand-dependent coactivator-RORγt binding
T1 construct: 20 nM recombinantly expressed RORγ-LBD fused to GST
T1 sequence (P51449 269-508 limits assumed): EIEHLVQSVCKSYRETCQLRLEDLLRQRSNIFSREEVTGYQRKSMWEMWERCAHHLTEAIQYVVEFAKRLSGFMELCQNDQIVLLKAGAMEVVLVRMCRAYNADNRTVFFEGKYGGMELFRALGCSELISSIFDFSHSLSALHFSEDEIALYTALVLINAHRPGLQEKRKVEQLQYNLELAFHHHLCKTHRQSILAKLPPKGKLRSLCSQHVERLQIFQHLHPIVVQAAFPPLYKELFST
Source text: Time-resolved FRET (TR-FRET) RORγt coactivator assay was used to identify RORγ modulator compounds with ligand-dependent coactivator displacement. The assay uses a d2-labeled anti-GST antibody, synthetic N-terminally biotinylated peptide which is derived from nuclear receptor coactivator protein RIP140, and a RORγt ligand-binding domain (RORγt-LBD) that is tagged with glutathione-S-transferase (GST). The influence of compounds on the RORγ-peptide interaction relies on the binding dependent energy transfer from a donor to an acceptor fluorophor attached to the binding partner of interest. […] For reduction of background from compound fluorescence, TR-FRET method makes use of generic fluorophore labels and time resolved detection.
The assays were done in a final volume of 20 μl in a 384 well plate in a CHAPS buffer (2 mM CHAPS; 1 mM DTT, 2 mM EDTA; 0.1% BSA), containing 20 nM recombinantly expressed RORγ-LBD fused to GST, 30 nM N-terminally biotinylated peptide, 1 nM streptavidin-terbium conjugate and 20 nM d2 labeled-anti-GST. Test compounds were diluted using 10 mM stock solution. The range of the final compound concentrations used in this test was from 0.3 nM to 30 μM (logarithmic scale). DMSO content of the samples was kept at 1%. The assay was equilibrated for 2 hours in the dark at room temperature in 384 well plates (Falcon). The signal was detected by an Ultra384 reader (TECAN). […] Compounds that promote coactivator displacement induce a concentration-dependent decrease in time-resolved fluorescent signal. Data were collected and analyzed using GraphPad Prism software (GraphPad Software V5.02, San Diego Calif. USA). IC50 in μM and E max in % were reported for each compound.

[2] = target: T2, human RORγt (Homo sapiens, UniProt P51449); assay: RORE Luciferase/RORγt transactivation assay (IL-17 promoter luciferase reporter in COS-7 cells); type: cell-based; set-up: V5-His (named only through the vector pcDNA3.1D/V5-His-TOPO); expressed in transfected cells; host or cells: COS-7 (monkey kidney); conditions: RORγt activity inhibition, luciferase activity in transfected COS-7 cells, 20 h
T2 sequence (P51449 1-497 isoform P51449-2): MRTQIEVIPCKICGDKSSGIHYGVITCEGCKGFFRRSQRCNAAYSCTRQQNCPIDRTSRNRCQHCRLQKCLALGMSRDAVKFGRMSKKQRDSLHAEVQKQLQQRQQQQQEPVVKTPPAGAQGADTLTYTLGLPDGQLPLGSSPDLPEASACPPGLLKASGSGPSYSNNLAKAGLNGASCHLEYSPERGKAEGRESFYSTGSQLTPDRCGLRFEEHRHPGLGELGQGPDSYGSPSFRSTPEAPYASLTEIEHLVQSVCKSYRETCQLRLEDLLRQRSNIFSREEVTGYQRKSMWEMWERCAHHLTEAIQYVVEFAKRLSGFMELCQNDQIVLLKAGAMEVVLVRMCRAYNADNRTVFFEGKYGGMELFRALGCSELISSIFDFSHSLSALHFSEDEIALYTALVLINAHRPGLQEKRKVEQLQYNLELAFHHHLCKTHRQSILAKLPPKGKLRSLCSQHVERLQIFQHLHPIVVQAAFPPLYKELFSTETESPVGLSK
Procedure: It is well known that RORγ binds to a conserved non-coding sequence (CNS) enhancer element in the IL-17 promoter.
Culture medium was changed every 2 days.
The 4.3 Kb human IL-17 promoter containing the RORγ-specific CNS enhancer element was PCR amplified from human genomic DNA and cloned into a pGL3-TKLuc2Cp reporter plasmid.
The luciferase reporter plasmid and the RORγt overexpression plasmid were transfected into COS-7 cell line using 4 μL JetPEI™/μg of DNA. Briefly, 150 ng of DNA (ration 1/2 between RORE-Tk Luc2Cp and cDNA RORγt or the empty vector for the negative control) was served to transfect adherent COS-7 cells in a […] culture flask, in complete medium (see cos-7 cell line culture).
Cells were then detached (using trypsin) and washed by centrifugation at 300 g for 10 minutes. Cell pellet was resuspended in serum free/phenol red free DMEM and seeded in 384 well plates at a density of 10000 cells/well and then incubated for 4 h at 37° C.
Compounds were dissolved in 100% DMSO to obtain 10 mM stock solutions. For each compound, test concentrations were diluted in serum free/phenol red free DMEM using the Genesis Freedom 200™ (TECAN) and added to the cells to obtain a 0.3% DMSO final concentration (in a final volume of 40 μL per well).
The luciferase activity was then measured with 40 μL/well steady-Glo Luciferase assay system (Promega, Madison, Wis.) and after incubation at room temperature for 30 minutes. The luminescence was estimated using the Ultra384 reader (TECAN). Data were collected and analyzed using GraphPad Prism software (GraphPad Software V5.02, San Diego Calif. USA). IC50 in μM and E max in % were reported for each compound.

IC50 [1] [nM]	IC50 [2] [nM]	Structure (SMILES)
< 1000	100 to 1000	Cc1ccc(C(NC(=O)Cc2cnc(N3CCOCC3)nc2)c2ccc(C)o2)c(N2CCCCC2)c1 (stereo not shown) [Cpd. 26, N-{[4-methyl-2-(piperidin-1-yl)phenyl](5-methylfuran-2-yl)methyl}-2-[2-(morpholin-4-yl)pyrimidin-5-yl]acetamide]
< 1000	< 100	Cc1ccc(C(NC(=O)Cc2ccc(N3CCS(=O)(=O)CC3)cn2)c2ccc(C)o2)c(N2CCCCC2)c1 (stereo not shown) [Cpd. 47, 2-[5-(1,1-dioxo-1-thiomorpholin-4-yl)pyridin-2-yl]-N-{[4-methyl-2-(piperidin-1-yl)phenyl](5-methylfuran-2-yl)methyl}acetamide]
100 to 1000	100 to 1000	Cc1ccc(C(NC(=O)C2(c3ccc(N4CCS(=O)(=O)CC4)cc3)CCC2)c2ccc(C)o2)c(N2CCCCC2)c1 (stereo not shown) [Cpd. 55, 1-[4-(1,1-dioxo-1-thiomorpholin-4-yl)phenyl]-N-{[4-methyl-2-(piperidin-1-yl)phenyl](5-methylfuran-2-yl)methyl}cyclobutane-1-carboxamide]
100 to 1000	100 to 1000	Cc1ccc(C(NC(=O)Cc2cnc(N3CCS(=O)(=O)CC3)nc2)c2ccc(C)o2)c(Br)c1 (stereo not shown) [Cpd. 34, N-[(2-bromo-4-methylphenyl)(5-methylfuran-2-yl)methyl]-2-[2-(1,1-dioxo-1-thiomorpholin-4-yl)pyrimidin-5-yl]acetamide]
100 to 1000	< 100	Cc1ccc(C(NC(=O)C2(c3ccc(N4CCS(=O)(=O)CC4)c(Br)c3)CC2)c2ccc(C)o2)c(N2CCCCC2)c1 (stereo not shown) [Cpd. 37, 1-[3-bromo-4-(1,1-dioxo-1-thiomorpholin-4-yl)phenyl]-N-{[4-methyl-2-(piperidin-1-yl)phenyl](5-methylfuran-2-yl)methyl}cyclopropane-1-carboxamide]
< 1000	< 100	COc1ccc(C(NC(=O)C2(c3ccc(N4CCS(=O)(=O)CC4)cc3)CC2)c2ccc(C)o2)c(C)c1 (stereo not shown) [Cpd. 44, 1-[4-(1,1-dioxo-1-thiomorpholin-4-yl)phenyl]-N-[(4-methoxy-2-methylphenyl)(5-methylfuran-2-yl)methyl]cyclopropane-1-carboxamide]
< 1000	100 to 1000	COc1cc(CC(=O)NC(c2ccc(C)o2)c2ccc(C)cc2N2CCCCC2)ccc1N1CCS(=O)(=O)CC1 (stereo not shown) [Cpd. 29, 2-[4-(1,1-dioxo-1-thiomorpholin-4-yl)-3-methoxyphenyl]-N-{[4-methyl-2-(piperidin-1-yl)phenyl](5-methylfuran-2-yl)methyl}acetamide]
100 to 1000	1000 to 10000	Cc1ccc(C(NC(=O)Cc2ccc(N3CCS(=O)(=O)CC3)cc2)c2ccc(C)o2)c(C(F)(F)F)c1 (stereo not shown) [Cpd. 24, 2-[4-(1,1-dioxo-1-thiomorpholin-4-yl)phenyl]-N-{[4-methyl-2-(trifluoromethyl)phenyl](5-methylfuran-2-yl)methyl}acetamide]
< 1000	100 to 1000	Cc1ccc(C(NC(=O)C(C)(C)c2ccc(N3CCS(=O)(=O)CC3)cc2)c2ccc(C)o2)c(C)c1 (stereo not shown) [Cpd. 40, N-[(2,4-dimethylphenyl)(5-methylfuran-2-yl)methyl]-2-[4-(1,1-dioxo-1-thiomorpholin-4-yl)phenyl]-2-methylpropanamide]
100 to 1000	100 to 1000	COc1ccc(CC(=O)NC(c2ccc(C)o2)c2ccc(C)cc2N2CCCCC2)cc1N1CCS(=O)(=O)CC1 (stereo not shown) [Cpd. 30, 2-[3-(1,1-dioxo-1-thiomorpholin-4-yl)-4-methoxyphenyl]-N-{[4-methyl-2-(piperidin-1-yl)phenyl](5-methylfuran-2-yl)methyl}acetamide]
< 1000	100 to 1000	Cc1ccc(C(NC(=O)C2(c3cccc(N4CCS(=O)(=O)CC4)c3)CC2)c2ccc(C)o2)c(C)c1 (stereo not shown) [Cpd. 68, N-[(2,4-dimethylphenyl)(5-methylfuran-2-yl)methyl]-1-[3-(1,1-dioxo-1-thiomorpholin-4-yl)phenyl]cyclopropane-1-carboxamide]
100 to 1000	1000 to 10000	Cc1ccc(C(NC(=O)Cc2cc(N3CCS(=O)(=O)CC3)ccc2C)c2ccccc2)c(N2CCOCC2)c1 (stereo not shown) [Cpd. 7, 2-[5-(1,1-dioxo-1-thiomorpholin-4-yl)-2-methylphenyl]-N-{[4-methyl-2-(morpholin-4-yl)phenyl](phenyl)methyl}acetamide]
1000 to 10000	1000 to 10000	Cc1ccc(C(NC(=O)Cc2cnc(N3CCS(=O)(=O)CC3)nc2C)c2ccc(C)o2)c(C)c1 (stereo not shown) [Cpd. 42, N-[(2,4-dimethylphenyl)(5-methylfuran-2-yl)methyl]-2-[2-(1,1-dioxo-1-thiomorpholin-4-yl)-4-methylpyrimidin-5-yl]acetamide]
< 1000	< 100	Cc1ccc(C(NC(=O)C2(c3ccc(N4CCS(=O)(=O)CC4)cc3)CC2)c2ccc(Cl)o2)cc1 (stereo not shown) [Cpd. 67, N-[(5-chlorofuran-2-yl)(4-methylphenyl)methyl]-1-[4-(1,1-dioxo-1-thiomorpholin-4-yl)phenyl]cyclopropane-1-carboxamide]
